The source made the active and inactive calls. The calls are words filed in the database; no cut-off is given here.
Key:
[1] = molecular target: D(3) dopamine receptor (Rattus norvegicus, UniProt P19020)
Description: Displacement of [125I]-7-OH-PIPAT from rat brain dopamine D3 receptor after 45 mins by microplate scintillation counting analysis

[2] = molecular target: T1, D(3) dopamine receptor (Homo sapiens, UniProt P35462); test: Agonist activity at human dopamine D3 receptor expressed in CHO cells after 90 mins by [35S]-GTPgamma S assay; assay type: cell-based
[3] = molecular target: T1, D(3) dopamine receptor; test: Antagonist activity at human dopamine D3 receptor expressed in CHO cells after 90 mins by [35S]-GTPgamma S assay; assay type: cell-based
[4] = molecular target: T2, Muscarinic acetylcholine receptor M1 (Homo sapiens, UniProt P11229); test: Antagonist activity at muscarinic M1 receptor (unknown origin)
T2 sequence (P11229 whole entry): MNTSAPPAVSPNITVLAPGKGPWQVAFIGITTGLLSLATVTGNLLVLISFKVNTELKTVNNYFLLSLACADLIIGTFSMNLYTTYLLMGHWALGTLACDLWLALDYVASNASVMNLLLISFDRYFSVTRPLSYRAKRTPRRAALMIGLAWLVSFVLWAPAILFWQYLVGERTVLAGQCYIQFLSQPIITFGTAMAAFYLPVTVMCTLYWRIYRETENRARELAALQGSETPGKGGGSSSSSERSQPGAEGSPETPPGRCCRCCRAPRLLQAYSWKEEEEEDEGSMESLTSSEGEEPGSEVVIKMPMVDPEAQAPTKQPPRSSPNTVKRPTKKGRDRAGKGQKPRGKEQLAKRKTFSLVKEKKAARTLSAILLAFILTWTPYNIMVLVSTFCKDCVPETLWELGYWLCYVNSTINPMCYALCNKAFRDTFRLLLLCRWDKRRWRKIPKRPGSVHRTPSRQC

[5] = molecular target: Voltage-gated inwardly rectifying potassium channel KCNH2 (Homo sapiens, UniProt Q12809); test: Displacement of [3H]-dofetilide from human ERG potassium channel by scintillation proximity assay
Sequence of Voltage-gated inwardly rectifying potassium channel KCNH2 (Q12809 whole entry): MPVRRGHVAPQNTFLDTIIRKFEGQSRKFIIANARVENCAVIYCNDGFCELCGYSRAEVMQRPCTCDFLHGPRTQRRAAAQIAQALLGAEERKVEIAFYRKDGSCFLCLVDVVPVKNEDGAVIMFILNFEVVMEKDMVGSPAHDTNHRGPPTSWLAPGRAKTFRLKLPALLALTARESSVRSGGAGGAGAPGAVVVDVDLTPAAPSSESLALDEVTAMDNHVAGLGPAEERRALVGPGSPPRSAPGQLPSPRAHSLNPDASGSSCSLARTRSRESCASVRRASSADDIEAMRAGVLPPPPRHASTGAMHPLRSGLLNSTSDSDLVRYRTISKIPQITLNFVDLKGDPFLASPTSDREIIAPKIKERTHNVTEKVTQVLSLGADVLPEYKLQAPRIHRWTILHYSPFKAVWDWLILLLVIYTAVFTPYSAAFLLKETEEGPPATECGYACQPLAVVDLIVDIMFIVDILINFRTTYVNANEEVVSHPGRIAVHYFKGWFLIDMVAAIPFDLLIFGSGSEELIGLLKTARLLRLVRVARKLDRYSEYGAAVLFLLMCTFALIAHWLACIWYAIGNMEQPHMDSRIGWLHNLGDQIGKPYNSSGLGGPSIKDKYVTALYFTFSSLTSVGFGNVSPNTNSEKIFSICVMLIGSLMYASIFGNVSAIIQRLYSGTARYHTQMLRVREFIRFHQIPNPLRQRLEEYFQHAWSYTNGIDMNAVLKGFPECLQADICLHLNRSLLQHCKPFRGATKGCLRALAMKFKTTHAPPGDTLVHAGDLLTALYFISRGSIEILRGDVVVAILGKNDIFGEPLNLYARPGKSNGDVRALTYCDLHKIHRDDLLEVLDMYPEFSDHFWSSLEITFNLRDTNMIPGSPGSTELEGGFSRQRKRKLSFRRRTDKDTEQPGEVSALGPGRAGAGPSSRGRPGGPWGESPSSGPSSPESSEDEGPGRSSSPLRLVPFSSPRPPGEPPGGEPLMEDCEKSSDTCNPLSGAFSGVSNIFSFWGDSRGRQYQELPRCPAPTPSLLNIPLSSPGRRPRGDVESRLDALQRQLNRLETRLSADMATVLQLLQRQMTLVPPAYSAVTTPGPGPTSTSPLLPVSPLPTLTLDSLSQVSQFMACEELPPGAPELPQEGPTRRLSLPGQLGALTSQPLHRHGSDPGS

[6] = molecular target: Dopamine receptor D2 and D3 (Rattus norvegicus) (UniProt P19020+P61169); test: Selectivity ratio of Ki for rat brain dopamine D2 receptor to Ki for rat brain dopamine D3 receptor
Sequence of Dopamine receptor D2 and D3 (Rattus norvegicus) (P19020 whole entry, looked up): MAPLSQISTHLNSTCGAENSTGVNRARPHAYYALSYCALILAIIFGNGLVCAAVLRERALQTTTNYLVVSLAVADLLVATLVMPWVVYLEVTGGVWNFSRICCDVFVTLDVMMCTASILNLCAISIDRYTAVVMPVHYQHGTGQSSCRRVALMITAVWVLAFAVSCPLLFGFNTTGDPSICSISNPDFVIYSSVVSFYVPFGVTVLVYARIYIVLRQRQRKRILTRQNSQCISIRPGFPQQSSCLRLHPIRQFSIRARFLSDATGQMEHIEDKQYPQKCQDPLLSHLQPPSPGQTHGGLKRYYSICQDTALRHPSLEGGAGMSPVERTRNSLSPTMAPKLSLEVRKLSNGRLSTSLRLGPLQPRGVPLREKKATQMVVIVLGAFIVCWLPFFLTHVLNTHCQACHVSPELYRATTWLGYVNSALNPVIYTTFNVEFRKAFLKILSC
Sequence of Dopamine receptor D2 and D3 (Rattus norvegicus) (P61169 whole entry, looked up): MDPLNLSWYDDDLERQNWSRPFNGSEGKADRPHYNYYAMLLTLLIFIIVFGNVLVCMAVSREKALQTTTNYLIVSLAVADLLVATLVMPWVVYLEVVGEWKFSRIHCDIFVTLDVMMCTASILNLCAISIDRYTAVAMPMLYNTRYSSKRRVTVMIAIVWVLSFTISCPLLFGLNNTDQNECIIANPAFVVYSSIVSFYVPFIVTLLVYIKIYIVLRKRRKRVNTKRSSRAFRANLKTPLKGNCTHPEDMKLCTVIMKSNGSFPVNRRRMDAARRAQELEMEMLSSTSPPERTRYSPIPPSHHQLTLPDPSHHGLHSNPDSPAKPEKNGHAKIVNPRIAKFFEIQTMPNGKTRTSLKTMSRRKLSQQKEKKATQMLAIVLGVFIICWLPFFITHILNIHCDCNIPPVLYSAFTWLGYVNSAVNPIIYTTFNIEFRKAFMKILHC

[7] = molecular target: D(1A) dopamine receptor (Homo sapiens, UniProt P21728); test: Binding affinity to dopamine D1 receptor (unknown origin)
Sequence of D(1A) dopamine receptor (P21728 whole entry): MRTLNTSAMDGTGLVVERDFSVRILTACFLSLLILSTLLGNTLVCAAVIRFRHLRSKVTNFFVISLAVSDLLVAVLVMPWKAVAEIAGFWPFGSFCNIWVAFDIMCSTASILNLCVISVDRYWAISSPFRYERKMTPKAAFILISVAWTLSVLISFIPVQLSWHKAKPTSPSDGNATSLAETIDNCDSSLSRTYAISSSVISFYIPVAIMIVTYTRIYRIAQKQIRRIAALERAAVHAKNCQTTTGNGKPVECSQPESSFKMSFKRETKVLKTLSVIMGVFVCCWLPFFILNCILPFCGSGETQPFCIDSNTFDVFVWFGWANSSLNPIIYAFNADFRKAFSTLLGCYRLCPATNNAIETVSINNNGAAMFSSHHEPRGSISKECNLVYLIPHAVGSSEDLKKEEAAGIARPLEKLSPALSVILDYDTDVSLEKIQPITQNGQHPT

[8] = molecular target: T3, D(4) dopamine receptor (Homo sapiens) (UniProt P21917); test: (§1) Binding affinity to dopamine D4 receptor (unknown origin)
T3 sequence (whole entry): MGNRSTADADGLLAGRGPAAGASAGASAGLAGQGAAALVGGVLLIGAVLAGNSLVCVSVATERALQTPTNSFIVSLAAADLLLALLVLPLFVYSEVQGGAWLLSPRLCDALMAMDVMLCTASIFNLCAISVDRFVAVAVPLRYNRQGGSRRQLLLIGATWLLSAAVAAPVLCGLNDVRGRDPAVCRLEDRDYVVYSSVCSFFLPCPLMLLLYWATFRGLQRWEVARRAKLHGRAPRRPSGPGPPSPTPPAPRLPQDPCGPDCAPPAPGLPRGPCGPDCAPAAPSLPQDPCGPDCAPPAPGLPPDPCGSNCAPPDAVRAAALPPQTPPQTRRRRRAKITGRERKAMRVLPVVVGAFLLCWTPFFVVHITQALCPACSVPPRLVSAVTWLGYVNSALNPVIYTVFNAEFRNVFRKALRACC

[9] = molecular target: Muscarinic acetylcholine receptor M3 (Homo sapiens, UniProt P20309); test: Binding affinity to muscarinic M3 receptor (unknown origin)
[10] = Fraction absorbed in portal vein-cannulated rat; assay type: ADME, organism-based; details: in vivo
[11] = molecular target: T4, Cytochrome P450 3A4 (Homo sapiens, UniProt P08684); test: Inhibition of human CYP3A4 expressed in bactosome using 7BQ as substrate; assay type: ADME
T4 sequence (P08684 whole entry): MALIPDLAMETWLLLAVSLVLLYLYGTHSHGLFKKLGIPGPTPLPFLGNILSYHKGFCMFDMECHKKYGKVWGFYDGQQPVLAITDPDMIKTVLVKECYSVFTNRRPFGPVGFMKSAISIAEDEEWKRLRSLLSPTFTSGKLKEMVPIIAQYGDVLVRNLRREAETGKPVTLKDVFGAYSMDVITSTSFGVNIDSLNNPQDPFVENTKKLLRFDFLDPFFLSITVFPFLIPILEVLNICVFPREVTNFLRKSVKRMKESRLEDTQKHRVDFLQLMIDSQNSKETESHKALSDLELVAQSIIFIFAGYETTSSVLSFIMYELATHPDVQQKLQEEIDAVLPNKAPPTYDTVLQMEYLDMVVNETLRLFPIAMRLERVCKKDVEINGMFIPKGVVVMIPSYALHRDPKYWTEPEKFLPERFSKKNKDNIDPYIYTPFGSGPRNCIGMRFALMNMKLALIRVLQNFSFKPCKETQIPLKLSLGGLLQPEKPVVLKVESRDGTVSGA

[12] = molecular target: Cytochrome P450 2C9 (Homo sapiens, UniProt P11712); test: Inhibition of human CYP2C9 expressed in bactosome; assay type: ADME
Sequence of Cytochrome P450 2C9 (P11712 whole entry): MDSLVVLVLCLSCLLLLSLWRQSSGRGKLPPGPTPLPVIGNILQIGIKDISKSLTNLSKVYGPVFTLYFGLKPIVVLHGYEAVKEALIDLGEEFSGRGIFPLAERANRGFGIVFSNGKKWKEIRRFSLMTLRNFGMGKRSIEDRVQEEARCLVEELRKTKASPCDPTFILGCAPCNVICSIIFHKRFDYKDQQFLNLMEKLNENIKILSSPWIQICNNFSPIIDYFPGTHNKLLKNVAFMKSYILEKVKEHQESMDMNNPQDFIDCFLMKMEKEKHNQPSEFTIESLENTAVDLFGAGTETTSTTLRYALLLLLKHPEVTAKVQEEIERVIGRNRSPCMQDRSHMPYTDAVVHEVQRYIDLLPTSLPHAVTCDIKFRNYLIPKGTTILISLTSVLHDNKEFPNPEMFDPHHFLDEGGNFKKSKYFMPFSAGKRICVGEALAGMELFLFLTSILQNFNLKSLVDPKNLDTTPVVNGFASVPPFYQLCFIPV

[13] = molecular target: T5, D(4) dopamine receptor (Homo sapiens, UniProt P21917); test: as §1
T5 sequence (P21917 whole entry): T3 sequence (whole entry)

[14] = Intrinsic clearance in human liver microsomes assessed per mg of protein; assay type: ADME; details: read-out: CLH
[15] = Fraction unbound in portal vein-cannulated rat brain; assay type: ADME, tissue-based
[16] = Bioavailability in portal vein-cannulated rat; assay type: ADME, organism-based; details: in vivo
[17] = molecular target: Cytochrome P450 2D6 (Homo sapiens, UniProt P10635); test: Inhibition of human CYP2D6 expressed in bactosome; assay type: ADME
Sequence of Cytochrome P450 2D6 (P10635 whole entry): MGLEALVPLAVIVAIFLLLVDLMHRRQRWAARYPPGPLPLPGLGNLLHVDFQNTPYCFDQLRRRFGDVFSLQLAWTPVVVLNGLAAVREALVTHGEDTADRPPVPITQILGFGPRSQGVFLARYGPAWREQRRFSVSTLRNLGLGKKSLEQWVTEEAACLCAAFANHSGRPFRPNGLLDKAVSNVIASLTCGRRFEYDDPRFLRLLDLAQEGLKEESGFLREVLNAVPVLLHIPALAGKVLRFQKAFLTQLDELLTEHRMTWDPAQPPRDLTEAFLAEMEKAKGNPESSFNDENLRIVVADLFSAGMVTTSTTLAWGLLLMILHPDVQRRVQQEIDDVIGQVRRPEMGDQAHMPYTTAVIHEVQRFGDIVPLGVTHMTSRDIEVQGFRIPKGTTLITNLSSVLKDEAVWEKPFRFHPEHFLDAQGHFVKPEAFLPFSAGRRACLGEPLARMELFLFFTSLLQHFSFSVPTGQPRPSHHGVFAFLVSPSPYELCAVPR

[18] = Volume of distribution at steady state in portal vein-cannulated rat; assay type: ADME, organism-based; details: in vivo, read-out: Vdss
[19] = Fraction unbound in portal vein-cannulated rat blood; assay type: ADME, tissue-based
[20] = molecular target: Cytochrome P450 2C19 (Homo sapiens, UniProt P33261); test: Inhibition of human CYP2C19 expressed in bactosome; assay type: ADME
Sequence of Cytochrome P450 2C19 (P33261 whole entry): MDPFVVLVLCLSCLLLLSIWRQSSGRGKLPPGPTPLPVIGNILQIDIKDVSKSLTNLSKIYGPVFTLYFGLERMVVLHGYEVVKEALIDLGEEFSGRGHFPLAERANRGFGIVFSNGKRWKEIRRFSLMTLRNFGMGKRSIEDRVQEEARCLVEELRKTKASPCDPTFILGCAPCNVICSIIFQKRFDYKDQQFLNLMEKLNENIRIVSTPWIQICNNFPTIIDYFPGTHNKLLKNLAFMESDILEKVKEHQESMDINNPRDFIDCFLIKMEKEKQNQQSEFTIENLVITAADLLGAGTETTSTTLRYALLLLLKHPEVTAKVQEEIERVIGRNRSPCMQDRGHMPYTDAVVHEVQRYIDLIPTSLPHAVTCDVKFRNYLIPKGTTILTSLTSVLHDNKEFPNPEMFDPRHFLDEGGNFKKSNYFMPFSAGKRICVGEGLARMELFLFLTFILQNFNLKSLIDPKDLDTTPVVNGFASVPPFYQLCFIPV

[21] = Half life in portal vein-cannulated rat; assay type: ADME, organism-based; details: in vivo
[22] = molecular target: T6, Cytochrome P450 1A2 (Homo sapiens, UniProt P05177); test: Inhibition of human CYP1A2 expressed in bactosome; assay type: ADME
T6 sequence (P05177 whole entry): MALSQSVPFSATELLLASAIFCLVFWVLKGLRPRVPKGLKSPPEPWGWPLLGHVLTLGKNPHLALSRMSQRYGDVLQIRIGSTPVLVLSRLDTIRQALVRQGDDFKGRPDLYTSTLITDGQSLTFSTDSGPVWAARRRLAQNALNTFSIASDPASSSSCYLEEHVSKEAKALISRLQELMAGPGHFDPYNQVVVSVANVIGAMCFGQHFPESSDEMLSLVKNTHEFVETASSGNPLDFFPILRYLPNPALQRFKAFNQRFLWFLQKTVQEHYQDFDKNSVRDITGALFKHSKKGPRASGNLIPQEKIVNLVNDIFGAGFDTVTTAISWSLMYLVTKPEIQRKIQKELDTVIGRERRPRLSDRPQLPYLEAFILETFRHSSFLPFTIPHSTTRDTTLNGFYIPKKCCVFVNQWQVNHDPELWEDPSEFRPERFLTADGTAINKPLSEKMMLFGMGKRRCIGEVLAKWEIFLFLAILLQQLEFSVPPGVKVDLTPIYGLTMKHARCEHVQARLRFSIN

[23] = Blood clearance in portal vein-cannulated rat; assay type: ADME, organism-based; details: whole blood
[24] = molecular target: T4, Cytochrome P450 3A4; test: Inhibition of human CYP3A4 expressed in bactosome using DBOMF as substrate; assay type: ADME
[25] = Intrinsic clearance in rat liver microsomes assessed per mg of protein; assay type: ADME; details: read-out: CLH

Sequence of D(3) dopamine receptor (Rattus norvegicus, UniProt P19020) (P19020 whole entry): as the sequence (P19020 whole entry, looked up) above
T1 sequence (P35462 whole entry): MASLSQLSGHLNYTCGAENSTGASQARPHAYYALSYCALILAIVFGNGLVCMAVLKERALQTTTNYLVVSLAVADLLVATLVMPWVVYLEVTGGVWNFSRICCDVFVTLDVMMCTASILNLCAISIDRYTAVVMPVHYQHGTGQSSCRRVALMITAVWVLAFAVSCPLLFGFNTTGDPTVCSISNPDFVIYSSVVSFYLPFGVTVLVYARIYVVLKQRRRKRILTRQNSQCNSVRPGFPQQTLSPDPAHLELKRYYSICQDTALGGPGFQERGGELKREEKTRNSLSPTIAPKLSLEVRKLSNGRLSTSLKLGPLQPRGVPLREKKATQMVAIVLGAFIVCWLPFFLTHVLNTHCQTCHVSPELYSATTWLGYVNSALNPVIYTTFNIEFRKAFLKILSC

## Cn1c(SCCCN2CCOC(c3ccc(C(F)(F)F)cc3)C2)nnc1-c1nccs1 (racemic)
[1]
  Ki: 251 nM
[2]
  Ki: > 10000 nM

## Cn1c(SCCCN2CCOC(c3ccc(C(F)(F)F)cc3)C2)nnc1-c1ccc(-n2cnnc2)cc1 (racemic)
[1]
  Ki: 126 nM
[2]
  Ki: > 10000 nM

## Cn1c(SCCCN2CCOC(c3ccc(C(F)(F)F)cc3)C2)nnc1-c1cnccn1 (racemic)
[1]
  Ki: 158 nM
[2]
  Ki: > 10000 nM

## Cc1nc(-c2ccc(-c3nnc(SCCCN4CCOC(c5ccc(C(F)(F)F)cc5)C4)n3C)cc2)no1 (racemic)
[1]
  Ki: 25.1 nM
[2]
  Ki: > 10000 nM
[3]
  Ki: 10 nM

## CC(=O)c1ccc(-c2nnc(SCCCN3CCOC(c4ccc(C(F)(F)F)cc4)C3)n2C)cc1 (racemic)
[1]
  Ki: 63.1 nM
[2]
  Ki: > 10000 nM
[3]
  Ki: 20 nM

## Cn1c(SCCCN2CCOC(c3ccc(C(F)(F)F)cc3)C2)nnc1-c1ccc(-c2nnco2)cc1 (racemic)
[1]
  Ki: 15.8 nM
[2]
  Ki: > 10000 nM
[3]
  Ki: 12.6 nM

## Cc1ccc(C2CN(CCCSc3nnc(-c4ocnc4C)n3C)CCO2)cc1 (racemic)
[1]
  Ki: 501 nM
[2]
  Ki: > 10000 nM

## Cn1c(SCCCN2CCOC(c3ccc(C(F)(F)F)cc3)C2)nnc1-c1cncc(C(N)=O)c1 (racemic)
[1]
  Ki: 100 nM
[2]
  Ki: > 10000 nM

## Cn1c(SCCCN2CCOC(c3ccc(C(F)(F)F)cc3)C2)nnc1-c1ccc(C(N)=O)cc1 (racemic) [listing 1 of 2 here]
[1]
  Ki: 31.6 nM
[4]
  Ki: 1000 nM
[2]
  Ki: > 10000 nM
[5]
  Ki: 5010 nM
[3]
  Ki: 20 nM

## Cc1ncoc1-c1nnc(SCCCN2CCOC(c3ccc(F)cc3)C2)n1C (racemic)
[1]
  Ki: 398 nM
[2]
  Ki: > 10000 nM

## Cn1c(SCCCN2CCOC(c3ccc(C(F)(F)F)cc3)C2)nnc1-c1ccc(-c2ncco2)cc1 (racemic)
[6]
  Ratio Ki: 300

## Cn1c(SCCCN2CCOC(c3ccc(C(F)(F)F)cc3)C2)nnc1-c1ccc(C(N)=O)cc1 (racemic) [listing 2 of 2 here]
[7]
  Activity: inactive
[8]
  Activity: inactive
[9]
  Activity: inactive

## Cc1ncoc1-c1nnc(SCCCN2CCOC(c3ccc(F)cc3)C2)n1C (stereo in doubt; 7)
[7]
  Activity: inactive
[8]
  Activity: inactive
[9]
  Activity: inactive

## Cc1ncoc1-c1nnc(SCCCN2CCOC(c3ccc(C(F)(F)F)cc3)C2)n1C (stereo in doubt; 9)
[1]
  Ki: 50.1 nM
[4]
  Ki: 1000 nM
[10]
  Fa: 63%
[7]
  Ki: > 100000 nM
[11]
  IC50: > 6000 nM
[12]
  IC50: > 6000 nM
[13]
  Ki: > 100000 nM
[14]
  microsomal CLint: 40 µL/min/mg
[5]
  Ki: 3160 nM
[15]
  fraction unbound: 0.071
[16]
  bioavailability: 58%
[17]
  IC50: > 6000 nM
[18]
  Vd: 2.5 L/kg
[19]
  fraction unbound: 0.062
[20]
  IC50: > 6000 nM
[21]
  half-life: 3.5 h
[22]
  IC50: > 6000 nM
[9]
  Ki: 1000 nM
[23]
  clearance: 13.5 mL/min/kg
[24]
  IC50: > 6000 nM

## Cc1ncoc1-c1nnc(SCCCCN2CCOC(c3ccc(C(F)(F)F)cc3)C2)n1C (stereo in doubt; 11)
[1]
  pKi: 7.1
[5]
  Ki: 2510 nM
[3]
  Ki: 15.8 nM

## Cn1c(SCCCN2CCOC(c3ccc(C(F)(F)F)cc3)C2)nnc1-c1ccc(C(N)=O)cc1 (stereo in doubt; 26)
[25]
  microsomal CLint: 16.3 µL/min/mg
[1]
  Ki: 15.8 nM
[11]
  IC50: > 30000 nM
[12]
  IC50: > 30000 nM
[14]
  microsomal CLint: 63.2 µL/min/mg
[5]
  Ki: 6310 nM
[15]
  fraction unbound: 0.03
[17]
  IC50: > 30000 nM
[3]
  Ki: 6.31 nM
[19]
  fraction unbound: 0.045
[20]
  IC50: > 30000 nM
[22]
  IC50: > 30000 nM
[24]
  IC50: > 30000 nM

## Cn1c(SCCCN2CCOC(c3ccc(C(F)(F)F)cc3)C2)nnc1-c1ccc(-c2ncco2)cc1 (stereo in doubt; 33)
[1]
  Ki: 398 nM

## Cn1c(SCCCN2CCOC(c3ccc(C(F)(F)F)cc3)C2)nnc1-c1ccc(-c2ncco2)cc1 (stereo in doubt; 34)
[25]
  microsomal CLint: 114 µL/min/mg
[1]
  Ki: 6.31 nM
[11]
  IC50: > 3000 nM
[12]
  IC50: > 3000 nM
[14]
  microsomal CLint: 668 µL/min/mg
[5]
  Ki: 1260 nM
[15]
  fraction unbound: 0.005
[17]
  IC50: > 3000 nM
[3]
  Ki: 3.16 nM
[19]
  fraction unbound: 0.008
[20]
  IC50: > 3000 nM
[22]
  IC50: > 3000 nM
[24]
  IC50: > 3000 nM
